Results on two compounds are retold here after paper PMC12787000 (Molecules, 2025).

A word on the IC50: it is the concentration that gives 50% inhibition.

The test system of assay [1] is MRC-5 (fetal fibroblasts). As to the kind of experiment: MTT cell viability assay, MRC-5. Format: cell-based. As to conditions: Homo sapiens, MRC5; MRC-5, MTT, 72 h. On the procedure: A375, MRC-5, and HaCaT cell lines were obtained from the American Type Culture Collection (ATCC). 518A2 cell line was kindly provided by Dr. […]ć. All cell lines were cultured in RPMI 1640 medium supplemented with 2 g/L glucose, 10% fetal bovine serum (FBS), and antibiotics. […] Cell viability was assessed using the MTT assay (Sigma Aldrich, #M5655). […] After 72 h of incubation, absorbance was measured at 570 nm using a Multiskan SkyHigh microplate reader (Thermo Fisher Scientific, Helsinki, Finland). Values were corrected by subtracting the absorbance measured in wells containing cell-free medium with tested compounds.
On the technique in general: Formazan colour is commonly taken as a measure of viable cells.

For a further assay, the target named is T1, AT1R (Homo sapiens, UniProt P30556).
T1 construct: endogenous in cells; host or cells: A375 melanoma cells (ATCC)
T1 sequence (P30556 1-359): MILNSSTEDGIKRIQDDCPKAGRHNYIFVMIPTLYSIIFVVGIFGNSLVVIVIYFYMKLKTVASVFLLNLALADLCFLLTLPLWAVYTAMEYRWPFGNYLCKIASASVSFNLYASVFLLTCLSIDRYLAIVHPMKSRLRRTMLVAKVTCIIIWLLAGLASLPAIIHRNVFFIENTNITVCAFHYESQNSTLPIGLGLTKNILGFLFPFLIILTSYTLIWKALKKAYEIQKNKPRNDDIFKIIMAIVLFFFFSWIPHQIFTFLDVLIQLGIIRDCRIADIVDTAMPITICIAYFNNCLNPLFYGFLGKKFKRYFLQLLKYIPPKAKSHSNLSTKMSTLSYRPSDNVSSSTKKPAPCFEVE
As to the kind of experiment: Angiotensin II-induced Ca2+ release, Fluo-4 AM live-cell imaging. As to conditions: 2 min; for Effect on AngII-induced Ca2+ increase (combination treatment): A375, 25 μM compound + 1 μM AngII; for Effect of compound alone on baseline Ca2+ signaling: A375, compound alone. The class given is cell-based. On the procedure: Fluo-4 AM calcium indicator dye (F14201, Molecular Probes, Eugene, OR, USA) was used to observe Ca^2+ dynamics upon treatment, per manufacturer’s instructions. Briefly, 5000 A375 cells/well were seeded in 96-well optical bottom black cell culture plates (165305, Thermo Scientific). Fluo-4 AM stock solution in DMSO was mixed with equal volume of 20% Pluronic F-127 to assist in dispersion of AM esters before dilution into the loading medium. Twenty-four hours after seeding medium was removed, and cells were washed with HBBS without calcium and magnesium. Cells were stained in HBSS medium with 1.25 μM Fluo-4-AM for 30 min at 37 °C. After incubation, cells were washed and incubated in complete medium (10%FBS RPMI) to allow de-esterification for 30 min and then treated with 1 μM human Angiotensin II (A9525, Sigma Aldrich), 50 μM telmisartan, compounds 1, 3, and 8, or the combinations. Images were taken before addition of the treatment (0 min) and after 2 min of treatment on Zeiss PALM MicroBeam Axio Observer Z1 microscope (Carl Zeiss MicroImaging GmbH, Oberkochen, Germany) with Zeiss LD Plan-Neofluar 20×/0.4 Korr, ∞/0–1.5 mm lens and AxioVision SE64 Rel.4.9.1 software. Experiment was repeated three times. Integrated density of Fluo-4 fluorescence at 2 min of exposure to treatment was calculated with Image J, and normalized to the baseline fluorescence at time 0, in at least two random fields for each condition. Conditions were compared with one-way ANOVA and Tukey’s multiple comparisons test. p < 0.05 was considered statistically significant.

For `CCCc1nc2c(C)cc(-c3nc4ccccc4n3C)cc2n1Cc1ccc(-c2ccccc2C(=O)NC(Cc2ccc(O)cc2)C(=O)O)cc1` (stereo not drawn) [compound 3, 2-{[4′-(1,7′-dimethyl-2′-propyl-1H-[2,5′]bibenzoimidazolyl-3′-ylmethyl)-biphenyl-2-carbonyl]-amino}-3-(4-hydroxy-phenyl)-propionic acid], the IC50 in assay [1] was determined as 50.74 ± 0.28 µM. On AT1R, the “Effect on AngII-induced Ca2+ increase (combination treatment)” value was “did not prevent AngII-induced Ca^2+ increase” and the “Effect of compound alone on baseline Ca2+ signaling” value is on record as “no significant changes in the baseline Ca^2+ signaling”.
`CCCc1nc2c(C)cc(-c3nc4ccccc4n3C)cc2n1Cc1ccc(-c2ccccc2C(=O)NC(Cc2ccccc2)C(=O)O)cc1` (stereo not drawn) [compound 8, 2-{[4′-(1,7′-dimethyl-2′-propyl-1H-[2,5′]bibenzoimidazolyl-3′-ylmethyl)-biphenyl-2-carbonyl]-amino}-3-phenyl-propionic acid]: the IC50 in assay [1] was found to be 31.5 ± 5.87 µM. Moreover, at AT1R, the “Effect on AngII-induced Ca2+ increase (combination treatment)” value was “did not prevent AngII-induced Ca^2+ increase” and the “Effect of compound alone on baseline Ca2+ signaling” value was “no significant changes in the baseline Ca^2+ signaling”.
